Columns and labels:
[1] = biological target: T1, GRK2 (Homo sapiens, UniProt P25098); test: GRK2 Inhibition Assay (TR-FRET, Example 7); format: biochemical; settings: read-out: B: Enzymatic GRK2: IC50 (nM) (Example 7)
T1 construct: purchased SignalChem A14-10G
T1 sequence (P25098 1-689): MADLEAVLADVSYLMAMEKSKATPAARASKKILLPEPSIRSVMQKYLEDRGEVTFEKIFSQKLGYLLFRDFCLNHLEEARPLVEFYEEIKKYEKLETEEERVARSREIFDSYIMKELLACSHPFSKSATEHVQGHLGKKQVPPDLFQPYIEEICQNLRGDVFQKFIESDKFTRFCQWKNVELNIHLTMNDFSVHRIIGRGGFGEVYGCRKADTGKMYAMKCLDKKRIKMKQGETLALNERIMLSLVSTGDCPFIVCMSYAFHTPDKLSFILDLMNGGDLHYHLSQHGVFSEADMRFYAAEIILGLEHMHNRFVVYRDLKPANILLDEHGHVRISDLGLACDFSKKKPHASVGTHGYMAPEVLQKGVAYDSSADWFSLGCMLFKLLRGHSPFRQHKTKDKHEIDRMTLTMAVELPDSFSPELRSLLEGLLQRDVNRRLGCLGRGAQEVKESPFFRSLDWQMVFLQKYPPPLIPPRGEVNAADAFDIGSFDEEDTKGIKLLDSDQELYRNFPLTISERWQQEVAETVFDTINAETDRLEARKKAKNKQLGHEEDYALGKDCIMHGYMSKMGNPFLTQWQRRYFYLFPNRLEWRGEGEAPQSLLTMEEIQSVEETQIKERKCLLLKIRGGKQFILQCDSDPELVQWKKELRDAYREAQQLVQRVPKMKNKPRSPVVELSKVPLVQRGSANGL
Outline: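 GRK2 at 1 nM preincubated 30 min with compound, then reacted 90 min at room temperature with 7 μM ATP and 50 nM ULight-TopoIIα in HEPES/MgCl2/DTT buffer. Phosphorylation detected by TR-FRET after Eu anti-TopoIIα and EDTA addition, 60 min.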

[2] = biological target: T1, GRK2; test: ADPGlo GRK2 Inhibition Assay (Example 8); format: biochemical; settings: read-out: A: Enzymatic GRK2: IC50 (nM) (Example 8)
Outline: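 GRK2 (15 nM 2× enzyme solution) was preincubated 15 min with compound, then reacted 180 min at room temperature with 2× mix of 20 μM ATP plus GRKtide in HEPES pH 7.5, MgCl2, Tween-20, DTT. ADP was detected by ADP-Glo luminescence. Percent inhibition was normalised to enzyme and no-enzyme controls, with dose-response curves from threefold dilutions starting at 100 μM.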

[3] = test system: PAXF1657 control empty vector cell line; test: 7-day proliferation assay, PAXF1657 control empty vector cell line (Example 9); format: cell-based; settings: 168 h; Cell Line: PAXF1657 empty vector (EV) cell line; 7-day; read-out: C: 7-day proliferation assay: IC50 GeoMean
Outline: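 Isogenic PAXF1657 pairs differing in GRK2 level (stable cDNA overexpression or CRISPR knockout, each with matched control) are seeded and allowed to attach overnight. Inhibitors span 30 μM-0.0002 μM in 0.3% DMSO for 3 plus 4 days at 37° C, 5% CO2, with a medium change between.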

[4] = Enzyme Assay B, TR-FRET (Example 7)
[5] = Enzyme Assay A, ADPGlo (Example 8)

Row | IC50 [1, 4] | IC50 [2, 5] | IC50 ([1]; TR-FRET GRK2 enzyme assay) | IC50 ([2]; ADPGlo GRK2 enzyme assay) | Compound | IC50 [3]
1 | 6.7 nM | 9.5 nM | – | – | Cn1cccc1CNC(=O)c1cccc(NCc2nnc(-c3ccncn3)n2C)c1 [drawing 585] | 551 nM
2 | 3.3 nM | 0.5 nM | – | – | Cc1cc2c(cc1CNC(=O)c1cccc(NCc3nnc(-c4ccncn4)n3C)c1)OCCO2 [drawing 588] | 996 nM
3 | 8.6 nM | 1.1 nM | – | – | Cc1cccc(C(CO)NC(=O)c2cccc(NCc3nnc(-c4ccncn4)n3C)c2)c1 (stereo not drawn) [drawing 589] | 407 nM
4 | 12 nM | 2.7 nM | – | – | Cn1c(CNc2cccc(C(=O)NCc3cccc(C#N)c3)c2)nnc1-c1ccncn1 [drawing 591] | > 30000 nM
5 | 7.2 nM | 2.8 nM | – | – | Cc1ccc2ncc(CNC(=O)c3cccc(NCc4nnc(-c5ccncn5)n4C)c3)n2c1 [drawing 596] | > 30000 nM
6 | 60 nM | 5.7 nM | – | – | CC(NC(=O)c1cccc(NCc2nnc(-c3ccncn3)n2C)c1)c1c[nH]cn1 (stereo not drawn) [drawing 599] | > 30000 nM
7 | 20 nM | 2.1 nM | – | – | Cn1c(CNc2cccc(C(=O)NCc3ccc(-n4nccn4)cc3)c2)nnc1-c1ccncn1 [drawing 601] | > 30000 nM
8 | 20 nM | 6.3 nM | – | – | Cn1c(CNc2cccc(C(=O)NCc3ccc(C#N)cc3)c2)nnc1-c1ccncn1 [drawing 603] | > 30000 nM
9 | 29 nM | 5.7 nM | – | – | Cn1nccc1CNC(=O)c1cccc(NCc2nnc(-c3ccncn3)n2C)c1 [drawing 608] | > 30000 nM
10 | 13 nM | 9.8 nM | – | – | Cc1nc(CNC(=O)c2cccc(NCc3nnc(-c4ccncn4)n3C)c2)cs1 [drawing 610] | > 30000 nM
11 | 26 nM | 1.7 nM | – | – | Cn1c(CNc2cccc(C(=O)NCc3ccc4nccn4c3)c2)nnc1-c1ccncn1 [drawing 611] | 2930 nM
12 | 18 nM | 6.5 nM | – | – | Cn1c(CNc2cccc(C(=O)NCc3cnn(-c4ccccc4)n3)c2)nnc1-c1ccncn1 [drawing 616] | > 30000 nM
13 | 21 nM | 6.2 nM | – | – | CCS(=O)(=O)c1ccc(CNC(=O)c2cccc(NCc3nnc(-c4ccncn4)n3C)c2)cc1 [drawing 618] | > 30000 nM
14 | 20 nM | 3 nM | – | – | Cc1ccn2c(CNC(=O)c3cccc(NCc4nnc(-c5ccncn5)n4C)c3)cnc2c1 [drawing 620] | 5600 nM
15 | – | – | 15 nM | 12 nM | C[C@@H](NC(=O)c1cccc(NCc2nnc(-c3ccncn3)n2C)c1)c1ncccc1Cl [drawing 845] | 27100 nM
16 | – | – | 11.9 nM | 20.2 nM | Cn1c(CNc2cccc(C(=O)N[C@@H]3COCc4ccccc43)c2)nnc1-c1ccncn1 [drawing 851] | > 800 nM

Second part, the compound before the results:

Row | Compound | IC50 [1, 4] | IC50 [2, 5] | IC50 ([1]; TR-FRET GRK2 enzyme assay) | IC50 ([2]; ADPGlo GRK2 enzyme assay) | IC50 [3]
17 | Cn1c(CNc2cccc(C(=O)N[C@H]3CCOc4ccccc43)c2)nnc1-c1ccncc1F | 59 nM | 44.3 nM | – | – | 1490 nM
18 | Cn1c(CNc2cccc(C(=O)N[C@H]3c4ccccc4C[C@H]3O)c2)nnc1-c1ccncn1 | 24 nM | 7.3 nM | – | – | 1410 nM
19 | Cn1c(CNc2cccc(C(=O)NCc3cnc4ccccn34)c2)nnc1-c1ccncn1 | 3.2 nM | 0.96 nM | – | – | 1490 nM
20 | Cc1cccc2nnc(CNC(=O)c3cccc(NCc4nnc(-c5ccncn5)n4C)c3)n12 | 2.1 nM | 0.79 nM | – | – | > 30000 nM
21 | Cc1cc2c(cc1CNC(=O)c1ccnc(NCc3nnc(-c4ccncn4)n3C)c1)OCCO2 | 11.6 nM | 22.1 nM | – | – | > 330 nM
22 | Cn1c(CNc2cc(C(=O)N[C@H]3COc4ccccc43)ccn2)nnc1-c1ccncn1 | 15.3 nM | 12.9 nM | – | – | 476 nM
23 | O=C(N[C@H]1CCOc2ccccc21)c1cccc(NCc2nnc(-c3ccncn3)n2CCO)c1 | 2.5 nM | 4.1 nM | – | – | 104 nM
24 | Cc1cccc([C@H](CO)NC(=O)c2cccc(NCc3nnc(-c4ccncn4)n3CCO)c2)c1 | < 0.8 nM | 2.32 nM | – | – | 50 nM
25 | O=C(N[C@@H]1COc2ccccc21)c1cccc(NCc2nnc(-c3ccncn3)n2CCO)c1 | < 3.6 nM | 1.95 nM | – | – | 90 nM
26 | C[C@H](NC(=O)c1cccc(NCc2nnc(-c3ccncn3)n2CCO)c1)c1ncccc1Cl | 0.88 nM | 4.89 nM | – | – | > 220 nM
27 | C#COc1cccc(OS(=O)(=O)F)c1CNC(=O)c1cccc(NCc2nnc(-c3ccncc3)[nH]2)c1 | 7.7 nM | 15.5 nM | – | – | 13300 nM
28 | C[C@H](NC(=O)c1cccc(NCc2nnc(-c3ccncn3)n2C)c1)c1ncccc1Cl | – | – | 16 nM | 9.6 nM | 696 nM
29 | Cn1c(CNc2cccc(C(=O)N[C@@H]3CCOc4c(Cl)cccc43)c2)nnc1-c1ccncn1 | – | – | 3.6 nM | 8.2 nM | > 470 nM
30 | Cn1c(CNc2cccc(C(=O)N[C@H]3CCOc4c(Cl)cccc43)c2)nnc1-c1ccncn1 | – | – | 13.2 nM | 33.6 nM | > 1010 nM
31 | CNS(=O)(=O)c1cccc(F)c1CNC(=O)c1cccc(NCc2nnc(-c3ccncn3)n2C)c1 | – | – | 12.7 nM | 7.36 nM | 732 nM
32 | CCc1cnccc1CNC(=O)c1cccc(NCc2nnc(-c3ccncn3)n2[C@@H]2CCC[C@H](NC)C2)c1 | – | – | 57 nM | 456 nM | > 4570 nM
33 | COc1ncccc1CNC(=O)c1cccc(NCc2nnc(-c3ccncc3)[nH]2)c1 [drawing 424] | 5.8 nM | 12 nM | – | – | > 11000 nM
34 | COc1cccc(C(CO)NC(=O)c2cccc(NCc3nnc(-c4ccncn4)n3C)c2)c1 (stereo not drawn) [drawing 569] | 13 nM | 5.4 nM | – | – | > 30000 nM
35 | Cn1c(CNc2cccc(C(=O)NCc3cnccc3Cl)c2)nnc1-c1ccncn1 [drawing 570] | 17 nM | 4.3 nM | – | – | 1190 nM
36 | Cn1c(CNc2cccc(C(=O)NCc3ccc4c(c3)CCN4)c2)nnc1-c1ccncn1 [drawing 571] | 15 nM | 9.4 nM | – | – | > 30000 nM
37 | Cn1c(CNc2cccc(C(=O)NC3CCOc4cccnc43)c2)nnc1-c1ccncn1 (stereo not drawn) [drawing 572] | 13 nM | 9.6 nM | – | – | 285 nM
38 | Cc1ccc(C(CO)NC(=O)c2cccc(NCc3nnc(-c4ccncn4)n3C)c2)cc1 (stereo not drawn) [drawing 575] | 8.1 nM | 3.3 nM | – | – | > 30000 nM
39 | CCOc1ccc(C(CO)NC(=O)c2cccc(NCc3nnc(-c4ccncn4)n3C)c2)cn1 (stereo not drawn) [drawing 577] | 12 nM | 1.8 nM | – | – | > 30000 nM
40 | Cn1c(CNc2cccc(C(=O)NCc3ccc(-n4ccnn4)cc3)c2)nnc1-c1ccncn1 [drawing 579] | 18 nM | 9.5 nM | – | – | > 30000 nM

Reference: US20230009608A1, “GRK2 INHIBITORS AND USES THEREOF” (Cygnal Therapeutics, Inc., priority 2020, published 2023)
